Experiment [1] concerns the target phencyclidine (PCP) receptors. Description: Inhibition of [^3 H]TCP receptor binding (RBS1). How it is done: The ability of the compounds of the instant invention to interact with phencyclidine (PCP) receptors which represents a noncompetitive NMDA antagonist binding site, is shown in Table 1. Tritiated 1[1-(2-thienyl)cyclohexyl]piperidine (TCP) binding, designated RBS1, was carried out essentially as described in J. Pharmacol. Exp. Ther., 238, 739-749 (1986).

For experiment [2], the system named is cultured rat cortical neurons. Put plainly: Inhibition of glutamate stimulated [^45 Ca] influx (GCI) into cultured rat cortical neurons. The class given is cell-based. The settings on record: Cortical neurone, read-out: CGCI IC50. The text has this: (§1) Since the influx of calcium is thought to be central to the damage resulting from ischemia, the ability of the compounds of the instant invention to inhibit the hypoxia and glutamate-stimulated influx of calcium into cultured rat cortical neurons (an assay representative of cerebrovascular disorders resulting from stroke or brain injury) is shown in Table 2 and Table 3, respectively. The methodology for determining the ability of the compounds of the instant invention to inhibit the glutamate-stimulated calcium influx (GCI) into cultured rat cortical neurons is to be found in: A. W. Probert and F. W. Marcoux, Soc. Neurosci. Abstr. 13, Part II, 754 (1987). Using a similar culture system, the ability of the compounds of the instant invention to inhibit the hypoxia-stimulated influx of calcium (HCI) was determined by incubating cultured cells in an atmosphere of nitrogen (95%) and CO2 (5%) at 37° C. for a period of four hours. Calcium influx was determined by subtraction of the stimulated influx in the presence of tetrodotoxin (3 μM) and magnesium (10 mM) from that found in the absence (control) and in the presence of the test substance.

In experiment [3] the test system is cultured rat cortical neurons. Put plainly: Inhibition of hypoxia stimulated [^45 Ca] influx (HCI) into cultured rat cortical neurons. The class given is cell-based. The settings on record: Cortical neurone, 4 h, hypoxia stimulated [^45 Ca] influx (CHCI), Table 3, nitrogen (95%) and CO2 (5%), 37° C., four hours, read-out: CGCI IC50.
Source text: as §1

Structures can show the parent of a compound that is named as a salt.

This passage reports IC50 results from patent publication US5276053A, “Polycyclic amines useful as cerebrovascular agents” (Warner-Lambert Company, priority 1992, dated 1994).

Broadly, the IC50 is the concentration that inhibits the measured activity by half.

Turning to `N[C@]12CCCC[C@H]1CCc1ccccc12` (relative stereo) [Example 2, Cis-1,3,4,9-10,10a-hexahydro-4a(2H)-phenanthrenamine monohydrochloride], the results for the IC50 in experiment [1] and in experiment [2] were 20 nM and 100 nM, respectively.
`CNC12CCCCC1Sc1ccccc12` (stereo not drawn) [* (X = S), reference compound]: the IC50 in experiment [2] worked out at 210 nM; in experiment [3], 180 nM.
As to `c1csc(C2(N3CCCCC3)CCCCC2)c1` [TCP, 1[1-(2-thienyl)cyclohexyl]piperidine], the IC50 in experiment [1] is 9 nM.
With `CN[C@]12CCCC[C@H]1CCc1ccccc12` (relative stereo) [Example 4, Cis-1,3,4,9,10,10a-hexahydro-N-methyl-4a(2H)-phenanthrenamine monohydrochloride], the IC50 in experiment [1] was 15 nM; in experiment [2], 410 nM; in experiment [3], 180 nM.
Regarding `CNC12CCCCC1Cc1ccccc12` (stereo not drawn) [* (X = CH2)], the IC50 in experiment [1] was determined as 16 nM.
In the case of `C=CCN[C@]12CCCC[C@H]1CCc1ccccc12` (relative stereo) [Example 5, N-Allyl-cis-1,3,4,9,10,10a-hexahydro-4a(2H)-phenanthrenamine monohydrochloride], the IC50 in experiment [1] worked out at 100 nM; in experiment [2], 902 nM; in experiment [3], 660 nM.
